# Measured values reported in patent US12331040B2 (Karyopharm Therapeutics Inc., priority 2013, dated 2025).
# Experiments:
# Assay in all cases: MTT cell proliferation assay
# Type in all cases: cell-based
# PANC-10.05 cells = conditions: Homo sapiens, Panc1005, 72-hour MTT
# How it was run: (§1)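 After overnight attachment at 5,000-10,000 cells per well, cultures receive test compound at eight levels (1 nM to 30 μM) for 72 h, followed by roughly 4 h with MTT. Dissolved formazan is quantified at 490 nm, giving percent inhibition against untreated control.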
# LN18 cells = conditions: Homo sapiens, LN-18, 72-hour MTT
# How it was run: as §1
# CAPAN-1 cells = conditions: Homo sapiens, 72-hour MTT
# How it was run: as §1
# AU-565 cells = conditions: Homo sapiens, AU565, 72-hour MTT
# How it was run: as §1
# DU-4475 cells = conditions: Homo sapiens, 72-hour MTT
# How it was run: as §1
# SW-837 cells = conditions: Homo sapiens, SW837, 72-hour MTT
# How it was run: as §1
# Hs578T cells = conditions: Homo sapiens, Hs-578T, 72-hour MTT
# How it was run: as §1
# NCI-H820 cells = conditions: 72-hour MTT
# How it was run: as §1
# Jurkat cells = conditions: Homo sapiens, 72-hour MTT
# How it was run: as §1
# NCI-H2030 cells = conditions: Homo sapiens, 72-hour MTT
# How it was run: as §1
# WI-38 cells = conditions: Homo sapiens, 72-hour MTT
# How it was run: as §1
# CAMA-1 cells = conditions: Homo sapiens, 72-hour MTT
# How it was run: as §1
# HCC-4006 cells = conditions: Homo sapiens, HCC4006, 72-hour MTT
# How it was run: as §1
# KG-1 cells = conditions: Homo sapiens, 72-hour MTT
# How it was run: as §1
# HPAF-II cells = conditions: Homo sapiens, 72-hour MTT
# How it was run: as §1
# SW-1417 cells = conditions: Homo sapiens, SW1417, 72-hour MTT
# How it was run: as §1
# SHSY5Y cells = conditions: Homo sapiens, SH-SY5Y, 72-hour MTT
# How it was run: as §1
# MSTO-211H cells = conditions: Homo sapiens, 72-hour MTT
# How it was run: as §1
# SW-48 cells = conditions: Homo sapiens, SW48, 72-hour MTT
# How it was run: as §1
# SW-1116 cells = conditions: Homo sapiens, 72-hour MTT
# How it was run: as §1
# U118MG cells = conditions: Homo sapiens, U-118-MG, 72-hour MTT
# How it was run: as §1
# HH cells = conditions: Homo sapiens, 72-hour MTT
# How it was run: as §1
# NCI-H929 cells = conditions: Homo sapiens, 72-hour MTT
# How it was run: as §1
# NCI-H1993 cells = conditions: Homo sapiens, 72-hour MTT
# How it was run: as §1
# U-937 cells = conditions: Homo sapiens, 72-hour MTT
# How it was run: as §1
# Tera-1 cells = conditions: 72-hour MTT
# How it was run: as §1
# NCI-H747 cells = conditions: Homo sapiens, 72-hour MTT
# How it was run: as §1
# Farage cells = conditions: 72-hour MTT
# How it was run: as §1
# RKO cells = conditions: Homo sapiens, 72-hour MTT
# How it was run: as §1
# HCC-827 cells = conditions: Homo sapiens, HCC827, 72-hour MTT
# How it was run: as §1
# Calu-6 cells = conditions: Homo sapiens, 72-hour MTT
# How it was run: as §1
# NCI-H187 cells = conditions: Homo sapiens, 72-hour MTT
# How it was run: as §1
# U-266 cells = conditions: Homo sapiens, 72-hour MTT
# How it was run: as §1
# HCT116.1 cells = conditions: 72-hour MTT
# How it was run: as §1
# SW-900 cells = conditions: Homo sapiens, SW900, 72-hour MTT
# How it was run: as §1
# PL-45 cells = conditions: PL45, 72-hour MTT
# How it was run: as §1
# AML-193 cells = conditions: 72-hour MTT
# How it was run: as §1
# Toledo cells = conditions: Homo sapiens, 72-hour MTT
# How it was run: as §1
# HuCCT-1 cells = conditions: Homo sapiens, 72-hour MTT
# How it was run: as §1
# NCI-H226 cells = conditions: Homo sapiens, 72-hour MTT
# How it was run: as §1
compound,measurement,setting,value
"Nc1ccc(/C=C/C(=O)NCc2cc3cc(-c4ccc(C(=O)N5CCC(F)(F)CC5)cn4)cc(C(F)(F)F)c3o2)cn1 [Compound 585, (E)-3-(6-aminopyridin-3-yl)-N-((5-(5-(4,4-difluoropiperidine-1-carbonyl)pyridin-2-yl)-7-(trifluoromethyl)benzofuran-2-yl)methyl)acrylamide]",IC50,PANC-10.05 cells,870 nM
same,IC50,LN18 cells,1660 nM
same,IC50,CAPAN-1 cells,90 nM
same,IC50,AU-565 cells,140 nM
same,IC50,DU-4475 cells,90 nM
same,IC50,SW-837 cells,600 nM
same,IC50,Hs578T cells,250 nM
same,IC50,NCI-H820 cells,2840 nM
same,IC50,Jurkat cells,40 nM
same,IC50,NCI-H2030 cells,300 nM
same,IC50,WI-38 cells,220 nM
same,IC50,CAMA-1 cells,1060 nM
same,IC50,HCC-4006 cells,740 nM
same,IC50,KG-1 cells,150 nM
same,IC50,HPAF-II cells,550 nM
same,IC50,SW-1417 cells,1270 nM
same,IC50,SHSY5Y cells,120 nM
same,IC50,MSTO-211H cells,250 nM
same,IC50,SW-48 cells,170 nM
same,IC50,SW-1116 cells,970 nM
same,IC50,U118MG cells,50 nM
same,IC50,HH cells,90 nM
same,IC50,NCI-H929 cells,930 nM
same,IC50,NCI-H1993 cells,> 10000 nM
same,IC50,U-937 cells,260 nM
same,IC50,Tera-1 cells,120 nM
same,IC50,NCI-H747 cells,590 nM
same,IC50,Farage cells,70 nM
same,IC50,RKO cells,50 nM
same,IC50,HCC-827 cells,780 nM
same,IC50,Calu-6 cells,350 nM
same,IC50,NCI-H187 cells,70 nM
same,IC50,U-266 cells,310 nM
same,IC50,HCT116.1 cells,> 10000 nM
same,IC50,SW-900 cells,> 10000 nM
same,IC50,PL-45 cells,1010 nM
same,IC50,AML-193 cells,30 nM
same,IC50,Toledo cells,50 nM
same,IC50,HuCCT-1 cells,60 nM
same,IC50,NCI-H226 cells,6780 nM
